Results published in patent US20250179047A1, “5-[7-(3,4-DIHYDRO-1H-ISOQUINOLINE-2-CARBONYL)-1,2,3,4 TETRAHYDROISOQUINOLIN-6-YL]-1H-PYRROLE-3-CARBOXAMIDE DERIVATIVES, PHARMACEUTICAL COMPOSITIONS CONTAINING THEM AND THEIR USES AS PRO-APOPTOTIC AGENTS” (LES LABORATOIRES SERVIER, priority 2022, published 2025).

Experiments:
BCL2 D103Y = BCL2 D103Y (Homo sapiens, UniProt P10415, D103Y); assay: TR-FRET competitive binding assay, BCL2 D103Y; settings: Ki determined from IC50, read-out: TR_FRET EKI_Bcl2 D103Y
In short: (§1)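 Competitive TR-FRET displacement of fluorescein-PUMA peptide (2 or 20 nM) from 0.5 nM terbium-labelled N-terminal Halo-fusion BCL2 (1-207, wild type or mutant) or BCLXL (2-196), expressed in E. coli. Buffer 50 mM Hepes pH 7.5, 150 mM NaCl, 5% DMSO; 2 h at 23°C. 520/495 nm ratio fitted over 11 points for IC50, converted to Ki.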

BCLXL WT = BCLXL WT (Homo sapiens (Human), UniProt Q07817); assay: TR-FRET competitive binding assay, BCLXL WT; settings: for Ki: BCLXL WT, Ki determined from IC50, read-out: TR_FRET EKI BclxL; for TR_FRET EKI BCLxL/WT selectivty ratio: ratio Ki BCLxL / Ki BCL2 WT
In short: as §1

BCL2 G101V [1] = assay: TR-FRET competitive binding assay, BCL2 G101V; parameters: species or system human; settings: ratio Ki BCL2 G101V / Ki BCL2 WT
In short: as §1

BCL2 G101V [2] = molecular target: BCL2 G101V (Homo sapiens, UniProt P10415, G101V); assay: TR-FRET competitive binding assay, BCL2 G101V; settings: BCL2 G101V; Ki determined from IC50; read-out: TR_FRET EKI_Bcl2 G101V
In short: as §1

BCL2 WT = BCL2 WT (Homo sapiens (Human), UniProt P10415); assay: TR-FRET competitive binding assay, BCL2 WT; settings: Ki determined from IC50, read-out: TR_FRET EKI_Bcl2 WT
In short: as §1

BCL2 D111A = BCL2 D111A (Homo sapiens, UniProt P10415, D111A); assay: TR-FRET competitive binding assay, BCL2 D111A; settings: Ki determined from IC50, read-out: TR_FRET EKI_Bcl2 D111A
In short: as §1

BCL2 F104I = BCL2 F104I (Homo sapiens, UniProt P10415, F104I); assay: TR-FRET competitive binding assay, BCL2 F104I; settings: Ki determined from IC50, read-out: TR_FRET EKI_Bcl2 F104I
In short: as §1

KMS-12-PE Bcl-2 G101V = assay: In vitro cytotoxicity CellTiter-Glo 48 h, KMS-12-PE Bcl-2 G101V; type: cell-based; settings: for Ratio (G101V/WT): C50 KMS-12-PE Bcl-2 G101V over C50 KMS-12-PE Bcl-2 WT; for IC50: CellTiter-Glo, 48 h, C50 = concentration needed to reach 50% of the cellular viability
In short: (§2)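 KMS-12-PE myeloma cells lentivirally transduced with Bcl-2 WT or G101V (TagRFP-sorted), exposed to compound 11-point dose-response for 48 h at 37 °C, 5% CO2. Viability read by CellTiter-Glo ATP luminescence; C50 is the concentration giving 50% cellular viability.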

CYP3A4 = CYP3A4 (Homo sapiens (Human), UniProt P08684); assay: CYP3A4 inhibition determination in hepatic human microsomes; type: in vitro ADME; settings: LC/MS-MS of specific metabolite
Experimental: The inhibitory potential was determined on CYP3 Å4 enzyme using hepatic human microsomes. A range of concentrations (adapted based on the solubility) of the tested compound were incubated in presence of a substrate having a specific metabolite of CYP3 Å4 enzyme.
Then, the formation of the metabolite was quantified using LC/MS-MS analysis and a curve corresponding to the concentration of the metabolite in function of the concentration of the test compound allowed to the calculation of the IC50 value.

KMS-12-PE Bcl-2 WT = assay: In vitro cytotoxicity CellTiter-Glo 48 h, KMS-12-PE Bcl-2 WT; type: cell-based; settings: C50 = concentration needed to reach 50% of the cellular viability
In short: as §2

KMS12PE Bcl2 D103Y = assay: In vitro cytotoxicity CellTiterGlo 72 h, KMS12PE Bcl2 D103Y; type: cell-based; settings: Homo sapiens, KMS-12-PE, read-out: C50 nM, KMS12PE Bcl2 D103Y
Experimental: (§3) KMS-12-PE (ACC 606) were purchased from the Leibniz-Institute DSMZ (Braunschweig, Germany) and were grown at 37° C. in a humidified atmosphere with 5% CO2 in media recommended by the suppliers. Lentiviral particles containing Bcl-2 wild type (also named “Bcl2 WT”), Bcl-2 mutated on G101V (also named “Bcl2 G101V”), Bcl-2 mutated on D103Y (also named “Bcl2 D103Y”), Bcl-2 mutated on D103V (also named “Bcl2 D103V”), Bcl-2 mutated on D103E (also named “Bcl2 D103E”), Bcl-2 mutated on F104I (also named “Bcl2 F104I”), Bcl-2 mutated on F104L (also named “Bcl2 F104L”), Bcl-2 mutated on D111A (also named “Bcl2 D111A”), Bcl-2 mutated on A113G (also named “Bcl2 A113G”), Bcl-2 mutated on R129L (also named “Bcl2 R129L”), Bcl-2 mutated on V156D (also named “Bcl2 V156D”) were cloned into pcLV-CMV-DEST-IRES-TagRFP. Lentiviral particles (1×10^6) were mixed with Polybrene at 8 μg/ml and transduced by spinoculation for 1 h at 32° C. and incubated overnight. After 8 days, TagRFP positive-cells were sorted by FACS. BCL2 expression was monitored by immunoblotting using anti-Flag and anti-BCL2 antibodies. Cells were seeded into 96-wells plates and treated with 1:3.16 serial dilution of compounds (9 different concentrations). Cell viability was assessed using CellTiterGlo reagent following treatment for 72 h. Results were normalized to the viability of cells without compounds (control wells). The C50 values were calculated using nonlinear regression algorithms in XCell software.

KMS12PE Bcl2 WT = assay: In vitro cytotoxicity CellTiterGlo 72 h, KMS12PE Bcl2 WT; type: cell-based; settings: Homo sapiens, KMS-12-PE, read-out: C50 nM, KMS12PE Bcl2 WT
Experimental: as §3

KMS12PE = assay: In vitro cytotoxicity CellTiterGlo 72 h, KMS12PE; type: cell-based; settings: Homo sapiens, KMS-12-PE, read-out: C50 nM, KMS12PE
Experimental: as §3

KMS12PE Bcl2 G101V = assay: In vitro cytotoxicity CellTiterGlo 72 h, KMS12PE Bcl2 G101V; type: cell-based; settings: Homo sapiens, KMS-12-PE, read-out: C50 nM, KMS12PE Bcl2 G101V
Experimental: as §3

KMS12PE Bcl2 F104I = assay: In vitro cytotoxicity CellTiterGlo 72 h, KMS12PE Bcl2 F104I; type: cell-based; settings: Homo sapiens, KMS-12-PE, read-out: C50 nM, KMS12PE Bcl2 F104I
Experimental: as §3

KMS12PE Bcl2 A113G = assay: In vitro cytotoxicity CellTiterGlo 72 h, KMS12PE Bcl2 A113G; type: cell-based; settings: Homo sapiens, KMS-12-PE, read-out: C50 nM, KMS12PE Bcl2 A113G
Experimental: as §3

KMS12PE Bcl2 D103E = assay: In vitro cytotoxicity CellTiterGlo 72 h, KMS12PE Bcl2 D103E; type: cell-based; settings: Homo sapiens, KMS-12-PE, read-out: C50 nM, KMS12PE Bcl2 D103E
Experimental: as §3

KMS12PE Bcl2 F104L = assay: In vitro cytotoxicity CellTiterGlo 72 h, KMS12PE Bcl2 F104L; type: cell-based; settings: Homo sapiens, KMS-12-PE, read-out: C50 nM, KMS12PE Bcl2 F104L
Experimental: as §3

KMS12PE Bcl2 D111A = assay: In vitro cytotoxicity CellTiterGlo 72 h, KMS12PE Bcl2 D111A; type: cell-based; settings: Homo sapiens, KMS-12-PE, read-out: C50 nM, KMS12PE Bcl2 D111A
Experimental: as §3

KMS12PE Bcl2 D103V = assay: In vitro cytotoxicity CellTiterGlo 72 h, KMS12PE Bcl2 D103V; type: cell-based; settings: Homo sapiens, KMS-12-PE, read-out: C50 nM, KMS12PE Bcl2 D103V
Experimental: as §3

KMS12PE Bcl2 R129L = assay: In vitro cytotoxicity CellTiterGlo 72 h, KMS12PE Bcl2 R129L; type: cell-based; settings: Homo sapiens, KMS-12-PE, read-out: C50 nM, KMS12PE Bcl2 R129L
Experimental: as §3

KMS12PE Bcl2 V156D = assay: In vitro cytotoxicity CellTiterGlo 72 h, KMS12PE Bcl2 V156D; type: cell-based; settings: Homo sapiens, KMS-12-PE, read-out: C50 nM, KMS12PE Bcl2 V156D
Experimental: as §3

Sequence of CYP3A4 (P08684 whole entry): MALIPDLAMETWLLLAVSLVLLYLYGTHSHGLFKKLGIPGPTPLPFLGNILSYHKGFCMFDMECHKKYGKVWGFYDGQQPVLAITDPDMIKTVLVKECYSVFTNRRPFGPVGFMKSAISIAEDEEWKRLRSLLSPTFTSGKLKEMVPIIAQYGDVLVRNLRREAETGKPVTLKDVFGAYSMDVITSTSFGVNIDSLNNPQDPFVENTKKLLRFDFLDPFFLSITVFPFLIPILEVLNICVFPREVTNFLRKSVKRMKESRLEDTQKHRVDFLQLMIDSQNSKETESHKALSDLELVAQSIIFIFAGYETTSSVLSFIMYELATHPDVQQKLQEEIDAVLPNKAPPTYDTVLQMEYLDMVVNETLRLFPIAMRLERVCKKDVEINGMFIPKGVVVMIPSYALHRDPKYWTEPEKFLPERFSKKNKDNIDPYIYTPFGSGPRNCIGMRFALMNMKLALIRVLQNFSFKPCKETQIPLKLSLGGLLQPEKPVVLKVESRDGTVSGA
Sequence of BCLXL WT (Q07817 other isoform, or with tags, fused parts or gaps): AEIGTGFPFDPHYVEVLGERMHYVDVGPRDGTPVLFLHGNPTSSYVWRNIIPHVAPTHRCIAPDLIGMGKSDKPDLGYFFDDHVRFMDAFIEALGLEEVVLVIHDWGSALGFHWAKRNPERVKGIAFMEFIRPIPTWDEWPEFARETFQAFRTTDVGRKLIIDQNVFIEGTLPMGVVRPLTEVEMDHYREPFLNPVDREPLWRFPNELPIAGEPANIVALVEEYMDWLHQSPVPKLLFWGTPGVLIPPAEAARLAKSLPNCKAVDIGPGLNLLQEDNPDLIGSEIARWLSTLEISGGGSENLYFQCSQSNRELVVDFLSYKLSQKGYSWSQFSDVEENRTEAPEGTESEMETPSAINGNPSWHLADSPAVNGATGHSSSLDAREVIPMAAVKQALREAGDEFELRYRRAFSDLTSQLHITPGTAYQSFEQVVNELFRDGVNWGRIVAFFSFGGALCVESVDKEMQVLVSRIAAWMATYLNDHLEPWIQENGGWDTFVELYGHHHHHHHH

Structure (SMILES) | Ki (BCL2 D103Y) [nM] | Ki (BCLXL WT) [nM] | TR_FRET EKI BCLxL/WT selectivty ratio (BCLXL WT) | TR_FRET EKI G101V/WT selectivty ratio (BCL2 G101V [1]) | Ki (BCL2 G101V [2]) [nM] | Ki (BCL2 WT) [nM] | Ki (BCL2 D111A) [nM] | Ki (BCL2 F104I) [nM] | Ratio (G101V/WT) (KMS-12-PE Bcl-2 G101V) | IC50 (CYP3A4) [nM] | IC50 (KMS-12-PE Bcl-2 G101V; Homo sapiens, KMS-12-PE) [µM] | IC50 (KMS-12-PE Bcl-2 WT; Homo sapiens, KMS-12-PE) [µM] | also measured
Cc1c(N(C(=O)c2cc(-c3cc4c(cc3C(=O)N3Cc5ccccc5C[C@H]3CN3CCCCC3)CN(C(=O)Cc3ccc(OCCN5CCOC(C)C5)cc3F)CC4)n(C)c2C)c2ccc(O)cc2)cc(C#N)n1C (single isomer, unassigned) [Example 109, N-(5-cyano-1,2-dimethyl-1H-pyrrol-3-yl)-5-[2-(2-{2-fluoro-4-[2-((2R or S)-2-methylmorpholin-4-yl)ethoxy]phenyl}acetyl)-7-[(3S)-3-[(piperidin-1-yl)methyl]-1,2,3,4-tetrahydroisoquinoline-2-carbonyl]-1,2,3,4-tetrahydroisoquinolin-6-yl]-N-(4-hydroxyphenyl)-1,2-dimethyl-1H-pyrrole-3-carboxamide] | 0.15 | 3.9 | 90.7 | 5.5 | 0.2 | 0.04 | 0.12 | 0.25 | 4.38 | > 5000 |  |  | IC50 (KMS-12-PE Bcl-2 G101V): 0.022 µM; IC50 (KMS-12-PE Bcl-2 WT): 0.0048 µM
CC1(C)CCC(CN2CCN(c3ccc(C(=O)NS(=O)(=O)c4ccc(NCC5CCOCC5)c([N+](=O)[O-])c4)c(Oc4cnc5[nH]ccc5c4)c3)CC2)=C(c2ccc(Cl)cc2)C1 [ABT199, Venetoclax, reference compound] |  |  |  |  |  |  |  |  |  |  |  |  | IC50 (KMS12PE Bcl2 D103Y): 1140 nM; IC50 (KMS12PE Bcl2 WT): 30.2 nM; IC50 (KMS12PE): 5.5 nM; IC50 (KMS12PE Bcl2 G101V): 1050 nM; IC50 (KMS12PE Bcl2 F104I): 1300 nM; IC50 (KMS12PE Bcl2 A113G): 120 nM; IC50 (KMS12PE Bcl2 D103E): 260 nM; IC50 (KMS12PE Bcl2 F104L): 1420 nM; IC50 (KMS12PE Bcl2 D111A): 22.4 nM; IC50 (KMS12PE Bcl2 D103V): 590 nM; IC50 (KMS12PE Bcl2 R129L): 42.6 nM; IC50 (KMS12PE Bcl2 V156D): 139 nM
Cc1c(N(C(=O)c2cc(-c3cc4c(cc3C(=O)N3Cc5ccccc5C[C@H]3C)CN(C(=O)c3ccccc3)CC4)n(C)c2C)c2ccc(O)cc2)cc(C#N)n1C [Example 25, 5-{2-benzoyl-7-[(3R)-3-methyl-1,2,3,4-tetrahydroisoquinoline-2-carbonyl]-1,2,3,4-tetrahydroisoquinolin-6-yl}-N-(5-cyano-1,2-dimethyl-1H-pyrrol-3-yl)-N-(4-hydroxyphenyl)-1,2-dimethyl-1H-pyrrole-3-carboxamide] | 0.48 | 3.2 | 18.8 | 7.6 | 1.3 | 0.17 |  |  | 12.4 | 12000 | 0.0778 | 0.0063 | 
Cc1c(N(C(=O)c2cc(-c3cc4c(cc3C(=O)N3Cc5ccccc5C[C@H]3CN3CCCCC3)CN(C(=O)Cc3ccc(OCCN5CCOCC5)cc3)CC4)n(C)c2C)c2ccc(O)cc2)cc(C#N)n1C [Example 67, N-(5-cyano-1,2-dimethylpyrrol-3-yl)-N-(4-hydroxyphenyl)-1,2-dimethyl-5-[2-(2-{4-[2-(morpholin-4-yl)ethoxy]phenyl}acetyl)-7-{[(3S)-3-(piperidin-1-ylmethyl)-3,4-dihydro-1H-isoquinolin-2-yl]carbonyl}-3,4-dihydro-1H-isoquinolin-6-yl]pyrrole-3-carboxamide] | 0.16 | 2.6 | 68.4 | 6.3 | 0.2 | 0.04 | 0.09 | 0.23 | 5.2 | > 5000 | 0.0562 | 0.0113 | 
Cc1c(N(C(=O)c2cc(-c3cc4c(cc3C(=O)N3Cc5ccccc5C[C@H]3CN3CCCC3)CN(C(=O)Cc3ccc(OCCN(C)C5CC5)cc3F)CC4)n(C)c2C)c2ccc(O)cc2)cc(C#N)n1C [Example 101, N-(5-cyano-1,2-dimethylpyrrol-3-yl)-5-{2-[2-(4-{2-[cyclopropyl(methyl)amino]ethoxy}-2-fluorophenyl)acetyl]-7-{[(3S)-3-(pyrrolidin-1-ylmethyl)-3,4-dihydro-1H-isoquinolin-2-yl]carbonyl}-3,4-dihydro-1H-isoquinolin-6-yl}-N-(4-hydroxyphenyl)-1,2-dimethylpyrrole-3-carboxamide] | 0.07 | 1.9 | 105.6 | 4.7 | 0.1 | 0.02 |  |  | 4.86 | > 5000 | 0.0806 | 0.0166 | 
